1 molecule from patent publication US20180236109A1, “Pain Tracking by PET-imaging (Pain-TraP)” (Universitat zu Koln, priority 2015, published 2018) can be followed below.

The target of test [1] is T1, PSMA (Mus musculus, UniProt O35409).
T1 construct: from tissue; host or cells: C57BL/6 mouse, in vivo (hindpaw, thigh/sciatic nerve lesion site, sciatic nerve plexus)
As to the kind of experiment: micro-PET tracer uptake in Complete-Freund's-Adjuvant (CFA) model of inflammatory pain. It counts as in vivo, mice. The protocol: (§1) Experiments were performed in male 6- to 12-week-old C57BL/6 mice. Animals were housed on a 12/12 light/dark cycle with access to food and water ad libitum. All experiments adhered to the guidelines of the International Association for the Study of Pain and to the ARRIVE guidelines, and were approved by our local Ethics Committee for Animal Research.
The mechanical sensitivity of the plantar side of a hindpaw was assessed with an automated testing device (dynamic plantar aesthesiometer; Ugo Basile). This device pushes a thin probe (0.5 mm diameter) with increasing force through a wire-grated floor against the plantar surface of the paw from beneath, and it automatically stops and records the latency time after which the animal withdraws the paw. The force increased from 0 to 5 g within 10 s (0.5 g/s ramp) and was then held at 5 g for an additional 10 s (Schmidtko et al., 2008a). The paw withdrawal latency was taken to be the mean of three consecutive trials with at least 10 s in between. After baseline measurements, 20 al of complete Freund's adjuvant (CFA; containing 1 mg/ml heat-killed Mycobacterium tuberculosis in paraffin oil 85% and mannide monooleate 15%; Sigma-Aldrich) was injected into the plantar subcutaneous space of a hindpaw, and paw withdrawal latencies were determined at the indicated timepoints after CFA injection (Schmidtko et al., 2008b).
(§2) The animals were allowed to wake up in their home cage, where they remained for 50 min. Subsequently, mice were reanesthetized, killed to reduce the time of procedures on the living animal, and placed on a two-animal holder (Medres®). PET scans in list mode were performed using a Focus 220 micro PET scanner (CTI-Siemens®) with a resolution at center of field of view of 1.4 mm. Data acquisition started exactly one hour after [^18F]DCFPyL-injection and lasted […]. It was followed by a transmission scan using a ^57Co-point source for attenuation correction. Following Fourier rebinning, data were reconstructed using the iterative OSEM3D/MAP procedure (Qi et al., 1998) resulting in voxel sizes of 0.38×0.38×0.80 mm.
(§3) Four individual volumes of interest (VOIs, 24 mm^3 each) were drawn, two of which were placed over the left and right sciatic nerve plexus. The other two were positioned either over the sciatic nerve lesion in the thigh and the undamaged contra-lesional thigh (in case of SNI model), or over the hindpaws (in case of CFA model). […] The ratio of ipsi- and contralateral VOIs was calculated.
Each measurement was taken on a separate set of animals. […] To simplify the measurement methodology, animals were sacrificed instead of anaesthesized after 1 h and measured in a iPET. Images were analyzed for the section of maximal intensity at the site of injection, the respective areas quantified, and the ratio between ipsi- and contralateral side calculated.
(§4) In the inflammatory pain model, “Complete Freunds Adjuvant (CFA)” was injected in the left hind paw, which leads to long-lasting inflammation and pain. To induce neuropathic pain in the “Spared nerve injury (SNI) model”, two branches of the sciatic nerve were ligated, while the third branch (the sural nerve) was left intact. In both models, pain sensitivity was measured using the Dynamic Plantar Test at the day before the PET scan. A movable force actuator was positioned below the plantar surface of the animal. A thin (0.5 mm) filament exerted increasing force, until the animal twitched its paw. The time it takes for the animal to retract its paw inversely reflects touch sensitivity.
(§5) On the next day, the PSMA tracer [^18F]DCFPyL was intravenously injected. After an uptake period of 60 min, an emission scan was performed for 30 min.

Test [2] has as its target T1, PSMA. Put plainly: micro-PET tracer uptake in sciatic nerve lesion (SNI) model of neuropathic pain. It counts as in vivo, mice. On the procedure:
as §1
Under isoflurane anesthesia, the tibial and common peroneal branches of the sciatic nerve were ligated and sectioned distally, while the sural nerve was left intact (Decosterd and Woolf, 2000); (Bourquin et al., 2006). Mechanical hypersensitivity at the lateral surface of the hindpaw (sural nerve skin area) was determined using a Dynamic Plantar Aesthesiometer as described above.
as §2, §3
For each measurement a separate set of animals was used. […] To simplify the measurement methodology, animals were sacrificed instead of anaesthesized after 1 h and measured in a pPET. Images were analyzed for the section of maximal intensity at the site of injection, the respective areas quantified, and the ratio between ipsi- and contralateral side was calculated.
as §4, §5

Setting [3] is: site of lesion, ipsi-/contralateral ratios, individual animals.
Setting [4] is: 10 MBq into tail vein, PET after 1 h.

T1 sequence (O35409 whole entry): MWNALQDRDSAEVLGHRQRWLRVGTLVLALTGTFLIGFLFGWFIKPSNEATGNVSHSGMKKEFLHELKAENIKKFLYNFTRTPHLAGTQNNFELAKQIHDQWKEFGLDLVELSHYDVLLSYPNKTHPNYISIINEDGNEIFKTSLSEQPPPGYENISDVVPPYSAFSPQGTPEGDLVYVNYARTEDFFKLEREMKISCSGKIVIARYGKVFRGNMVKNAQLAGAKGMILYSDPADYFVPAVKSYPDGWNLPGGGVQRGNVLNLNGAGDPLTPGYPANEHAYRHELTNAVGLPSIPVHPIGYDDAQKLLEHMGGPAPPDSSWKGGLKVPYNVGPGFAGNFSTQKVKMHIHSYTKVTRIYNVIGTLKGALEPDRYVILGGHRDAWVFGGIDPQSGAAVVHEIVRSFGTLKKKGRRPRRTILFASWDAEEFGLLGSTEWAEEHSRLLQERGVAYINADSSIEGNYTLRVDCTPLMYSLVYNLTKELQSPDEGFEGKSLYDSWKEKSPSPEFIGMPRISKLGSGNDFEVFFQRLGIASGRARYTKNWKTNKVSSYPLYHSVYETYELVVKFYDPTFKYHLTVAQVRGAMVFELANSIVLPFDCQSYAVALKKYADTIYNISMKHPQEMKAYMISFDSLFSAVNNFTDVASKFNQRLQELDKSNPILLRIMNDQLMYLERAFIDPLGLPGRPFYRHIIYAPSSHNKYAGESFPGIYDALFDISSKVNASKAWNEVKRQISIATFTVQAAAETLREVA

For `O=C(O)CCC(NC(=O)NC(CCCCNC(=O)c1ccc([18F])nc1)C(=O)O)C(=O)O` (stereo not shown) [[^18F]DCFPyL, 2-(3-{1-Carboxy-5-[(6-[18F]fluoro-pyridine-3-carbonyl)-amino]-pentyl}-ureido)-pen tanedioic acid], the “tracer uptake at the lesion site” value is “significantly increased” in test [1] (2, 7, and 14 days after CFA injection, FIG. 12B); “significantly increased” in test [2] (3, 7, and 14 days after surgery, FIG. 11B). Besides, the “tracer uptake at the contralateral side” value in test [1] (10 MBq into tail vein, PET after 1 h, contralateral paw) was “little to no”; in test [2] (setting [4]), “little to no”. Moreover, the “tracer uptake at the site of CFA injection” value in test [1] (10 MBq into tail vein, PET after 1 h, injected hindpaw) is given as “high”. In addition, in test [1] (FIG. 3), the “enrichment at the side of CFA injection, increase over the contra-lateral side” value is given as about 2 fold. Besides, the “quantification of the uptake, increase over controls” value in test [1] (average, ratio ipsi-/contralateral, FIG. 3) came to 2 fold. Moreover, the “correlation of tracer uptake with pain sensitivity” value in test [1] (setting [3]) and in test [2] (setting [3]) was “significantly correlated” throughout. Also, the “tracer uptake in sham treated animals” value in test [2] (setting [4]) is “little”. For the same molecule, the “tracer uptake at the site of injury” value in test [2] (10 MBq into tail vein, PET after 1 h, sciatic nerve lesion) was “high and strong enrichment”. The “quantification of the uptake, increase over sham-operated controls” value in test [2] (average, FIG. 6) is given as 2-3 fold. In addition, in test [2] (neuropathic pain animals), the “tracer enrichment along the nerve plexus” value is recorded as “enrichment along the nerve toward the spinal cord”.
